`O=C(O)c1cccc(NC(=O)C(CS)Cc2ccc(F)cc2F)c1` (centres undefined) showed a melting point of 168 to 170 °C. Next, `OCc1cccc(OCc2ccc3ccccc3n2)c1`: 70 °C; `CSc1nn(-c2c(Cl)cc(C(F)(F)F)cc2Cl)c(N)c1S(=O)(=O)c1cccc(C(F)(F)F)c1`: 201 to 203 °C. Then `Cc1ccc2oc(C(=O)N[C@H]3CCN(C(=O)c4cc(C(F)(F)F)cc(C(F)(F)F)c4)[C@H](Cc4ccc(Cl)cc4)C3)cc(=O)c2c1`, with 240 to 241 °C; and `CCc1cc2cc(F)ccc2[nH]1`, with 41 to 42 °C. Next, `COc1cc(CCCC2OC(=O)NC2=O)ccc1O` (centres undefined): 147 to 148 °C. Consider `Nc1scc2c(C(=O)O)nn(-c3ccc(Cl)cc3)c(=O)c12`, for which the melting point was over 300 °C. Then `CC(C)(CCCCCC(O)CCCCCC(C)(C)CC(=O)c1cccnc1)COC(=O)c1cccnc1` (centres undefined), with 65 to 67 °C. Next, `CCOC(=O)C1=Cc2ccsc2S(=O)(=O)N1CCCOC`: 82 to 83 °C; `Cc1cccc(-c2[nH]c(C(C)C)nc2-c2cccc(-c3cccs3)c2)n1`: 73 to 76 °C. Then `COc1cc(OC)c(-c2cc3ccccc3n2C)cc1C=CC(=O)c1ccc(S(=O)(=O)NO[Si](C)(C)C(C)(C)C)cc1`, with 129 to 131 °C; and `CCC(=O)Nc1ccc(-n2cc(CCCOc3c(CC(=O)O)cccc3OC)c(C(C)C)n2)nc1`, with 147 to 148 °C.

Compound `CC(C)OC(=O)c1cc2c3ccccc3n(Cc3ccccc3)c2s1` registered a melting point of 88 to 89 °C. Next, `O=C(O)CC1(C(=O)O)CCOc2ccc(C(=O)O)cc21` (centres undefined): 198 to 200 °C; `CCOC(=O)CC(O)Cc1ccc([N+](=O)[O-])cc1` (centres undefined): 71 to 72 °C; `O=C(CBr)CCCCCCN1C(=O)c2ccccc2C1=O`: 83 to 86 °C.

As to `CCOC(=O)c1ccc(COc2cccc3nc(C(=O)NCc4cccc(OC)c4)[nH]c(=O)c23)cc1`, the melting point fell in the range of 205 to 207 °C.

For the compound `CCCN1CCC(Cc2ccc3c(c2)c(Cc2ccc(C(=O)O)cc2OC)cn3CCC)C1=O` (centres undefined), the melting point is 75 to 86 °C. Next, `CCCCn1nc(C)c(C=O)c1Cc1ccc(-c2ccccc2-c2nnn[nH]2)cc1`: 64 to 70 °C. Next, `CCOc1cc(OCCCc2cn(-c3ccc(C(F)(F)F)cn3)nc2OC)ccc1CCC(=O)O`: 145 to 146 °C; `Oc1ccc(Nc2ccn(-c3ccccc3)n2)cc1`: 147 to 148 °C. Then `N#Cc1c2ccccc2c(-c2cc(Br)c(O)c(Br)c2)c2c1sc1ccccc12`, with 321 to 323 °C.

The compound `CCOc1ccc2cccnc2c1[N+](=O)[O-]` gave a melting point of 161 to 164 °C.

Consider `CCCCc1oc2ccc(C#N)cc2c1C(=O)c1ccc(OCCCN(CCCC)CCCC)cc1`, for which the melting point lay in the range of 85 to 87 °C. `NS(=O)(=O)c1cc(C(=O)O)c(NCc2ccccc2)cc1Oc1ccccc1` registered a melting point of 237 to 239 °C. The compound `CCC1(C=O)CSc2ccccc2C(c2ccccc2)=N1` (racemic) showed a melting point of 98 to 100 °C. Then `OCc1csc(Nc2ccc(Br)cn2)n1`, with 207 to 209 °C.

Regarding `CC1(C)C(=O)OC2=C1CC(OS(C)(=O)=O)C=C2` (centres undefined), the melting point was 120 to 121 °C. `NS(=O)(=O)c1ccc(NC(=O)c2ccc(F)cc2SSc2cc(F)ccc2C(=O)Nc2ccc(S(N)(=O)=O)cc2)cc1` gave a melting point of 309 to 310 °C. Turning to `CS(=O)(=O)c1cc(CBr)ccc1Br`, the melting point was 120 to 124 °C. Next, `CN(CCCCNC(=NCCCOc1cccc(CN2CCCCC2)c1)NC#N)CCC(c1ccc(F)cc1)c1ccccn1` (centres undefined): 105 to 110 °C. Then `O=C(O)C1=Cc2ccccc2NC1`, with 223 to 226 °C; and `NC(=O)N(O)Cc1cccc(OCCc2csc(-c3ccc(C(F)(F)F)cc3)n2)c1`, with 118 to 120 °C. Then `COc1ccc(CN2C(=O)C3CC(c4ccc([N+](=O)[O-])cc4)(C3)C2=O)cc1`, with 146 to 147 °C; and `CC1(C)CCC(C)(C)c2cc(C(=O)COc3ccc(C(=O)OCc4ccccc4)c(O)c3)ccc21`, with 103 to 104 °C. For the compound `O=C(NCc1cccs1)n1cc(F)c(=O)[nH]c1=O`, the melting point fell in the range of 131 to 132 °C. Then `COc1ccccc1C1=C(NC(=O)Nc2ccc(N(C)C)cc2)SCc2ccccc21`, with 128 to 130 °C; and `COc1cc(NNc2nccc(Nc3ccc4nc(C)[nH]c4c3)n2)cc(OC)c1OC`, with 179 °C; and `Cc1cccc(-c2[nH]c(C(C)C)nc2-c2cccc(-n3ccnc3)c2)n1`, with 158 to 161 °C. Compound `Cc1cc(-c2ccc(C(F)(F)F)cc2)nc(-c2ccnc(-c3cccc(S(N)(=O)=O)c3)c2)c1` had a melting point of 238 °C. Next, `c1cn(CCCc2ccc(OCc3coc(-c4ccc(OCc5ccc6c(c5)OCO6)cc4)n3)cc2)cn1`: 124 to 125 °C; `CC(C)N(C)C(=O)COCCCCCCCC[C@H]1C[C@]2(C)[C@@H](O)CC[C@H]2[C@@H]2CCc3cc(O)ccc3[C@@H]12`: 126 °C; `CCC(=O)OCCOCn1cnc2c(=O)[nH]c(N)nc21`: 223 to 226 °C. Then `COc1ccccc1C(C)(O)c1ccco1` (centres undefined), with 64 to 66 °C. Then `Cc1ccc(S(=O)(=O)NC(=O)C2C(=O)CC(c3ccccc3)CC2=O)cc1` (centres undefined), with 164 to 166 °C; and `COC(=O)CCc1cc(Cl)ccc1C(=O)CCCNC(C)=O`, with 46 to 48 °C; and `CN(CCc1ccccc1)c1ssc(=O)c1Cl`, with 75 °C. `CC(C)(C)c1cc(-c2nc3n(c2CO)CCS3)cc(C(C)(C)C)c1O` yielded a melting point of 227 to 229 °C.

`CCN(CC)c1ccc(S(=O)(=O)N2CCCCC2=O)cc1` gave a melting point of 118 to 120 °C. The compound `COC(=O)OCc1cnc(C)c(OC(=O)OC)c1` had a melting point of 65 °C.

For `CN(c1cccc2cc(-c3nccs3)[nH]c12)S(=O)(=O)c1cccs1`, the melting point was 201 to 202 °C. Next, `COc1cccc(NC(=O)NC2N=C(C)c3ccccc3N(CC(=O)N(C)c3ccccc3)C2=O)c1` (centres undefined): 238 to 239 °C; `N#Cc1ccc(N2C(=O)[C@@H]3[C@H](O)CCN3C2=S)c2ccccc12`: 215 to 216 °C. Next, `CC(C)(CCCCCC(=O)CCCCCC1(C(=O)O)CC1)C(=O)O`: 65 to 66 °C; `COc1ccc(N(Cc2cc(C(C)(C)C)c(O)c(C(C)(C)C)c2)S(=O)(=O)c2cccs2)cn1`: 96 to 97 °C. For the compound `CCCCOc1nn(-c2ccc(C(F)(F)F)cn2)cc1CCCOc1ccc(CCC(=O)O)c(OCC)c1`, the melting point fell in the range of 102 to 103 °C.

Regarding `O=C(NCc1ccc(F)c(F)c1)c1cc(-n2cnn(Cc3ccc(F)cc3)c2=O)n[nH]1`, the melting point lay within 208 to 209 °C.

In turn, `COCCOc1ccc(Nc2nc(Nc3cc4c(cc3OC)CCN(CC(=O)N(C)C)CC4)ncc2Cl)c(S(=O)(=O)C(C)C)c1` gave a melting point of 65 to 75 °C. For `CC(C)C1(C)N=C2c3nc4sccc4cc3C(=O)N2C1=O` (centres undefined), the melting point lay within 214 to 216 °C. Then `Cn1cc(-c2ccc(Br)cc2)c(=O)c(-c2cccc(C(=O)O)c2)c1`, with 259 to 263 °C; and `Cc1c(S(=O)(=O)Nc2ccc(-c3nc(C(=O)O)cs3)cc2S(C)(=O)=O)sc2ccc(F)cc12`, with 257 to 258 °C. Then `COc1ccc(N2CCN(C[C@@H](O)COc3cccc(-c4noc5ccsc45)c3)CC2)cc1`, with 110 to 113 °C; and `CC(=O)Oc1cccc(-c2nc(=O)n(C(C)C)c3cc(C)ccc23)c1`, with 148 to 150 °C; and `CC(C)OC(=O)C(C(=O)Nc1nccs1)=C1SCS1`, with 174 to 175 °C.

The compound `Cc1cccc(N2Cc3nc(C(=O)O)nn3-c3ccccc32)c1C` registered a melting point of 195 to 197 °C. Next, `O=C(NCC1(O)CCCCCC1)c1c(Cl)ccc2nc(N3CC[C@H](NCCO)C3)ccc12`: 138 to 140 °C.

As to `COc1cc(N2CCC(N3CCOCC3)C2)ccc1Nc1ncc2ccc(-c3ccccc3N(C)S(C)(=O)=O)n2n1` (centres undefined), the melting point fell in the range of 110 to 119 °C. Then `CCOC(=O)Cc1ccc(-c2cn3ccccc3n2)cc1`, with 92 to 93 °C; and `CCOc1cc(Br)ccc1C=NNC(=N)NN=Cc1ccc(Br)cc1OCC`, with 195 to 197 °C; and `O=C(O)C(Cc1ccccc1)Nc1nccc(-c2ccc(OCc3ccccc3)cc2)n1` (centres undefined), with 174 °C.

For `ClCc1cn2ccccc2n1`, the melting point was 93 to 94 °C. On to `Cc1cc(=O)c2ccc(OCCCN3CCC(NC(=O)c4ccccc4[N+](=O)[O-])CC3)cc2o1`, for which the melting point fell in the range of 185 to 187 °C. `O=[N+]([O-])c1ccc(CO)c(Nc2nccc(-c3cccnc3)n2)c1` came in with a melting point of 247 to 250 °C.

Turning to `O=C(Nc1nnn[nH]1)c1cc(Cl)ccc1[N+](=O)[O-]`, the melting point was in the range of 268 to 269 °C. Then `CCNc1ccc(-c2nnsc2-c2ccc(NCC)cc2)cc1`, with 96.5 to 98.5 °C; and `O=C(O)COc1cc(Cl)ccc1C(=O)NCc1cc(C(F)(F)F)cc(C(F)(F)F)c1`, with 191 to 193 °C.

As to `O=C(NC(Cc1ccc(OCc2ccoc2)cc1)C(=O)O)c1cn2nc(-c3ccc(Cl)cc3)ccc2n1` (centres undefined), the melting point amounted to 220 °C. Next, `N#Cc1c(Cl)c(C(F)(F)F)n(CCl)c1-c1ccc(Cl)cc1`: 107 to 108 °C; `CCc1oc2ccccc2c1C(O)c1ccccc1` (centres undefined): 98 to 99 °C; `CCCc1c(OCCCSc2ccc(-c3nnn[nH]3)cc2)ccc(C(C)=O)c1O`: 114 to 116 °C. Next, `FC(F)(F)c1cc(-n2cncn2)c2cccc(C(F)(F)F)c2n1`: 106 to 107 °C. Then `CC(=O)c1ccc(NS(C)(=O)=O)c(Oc2ccc(Cl)cc2Cl)c1`, with 119 to 121 °C; and `COc1ccc(-c2nc(Cl)c(Oc3ccccc3OC)c(Cl)n2)cc1`, with 113 to 114 °C.

`CC(C)c1cccc(C(C)C)c1NC(=O)[C@H](C)N` registered a melting point of 118 to 122 °C.

Source of the values: a melting point compilation (Tetko et al.; mined from patent text by program, amines drawn as free bases though some values may be those of a salt).
